Key:
[1] = test system: human microglia and astrocytes; details: cited from earlier work
[2] = Source text: With or without one or more of the following adjuvant cofactors given one to three times daily
I did Viome testing and must avoid some foods and take pre and pro biotics that they recommend.

[3] = 2018 study, cited from earlier work
[4] = corn and wheat samples; cited from earlier work
[5] = test system: differentiated human derived cell lines; details: glial cells activated by LPS/IFNγ or IFNγ and treated with STS; cited from earlier work
[6] = cited from earlier work

Row | Compound | H2S and GSH expression [1] | changes observed (patient questionnaire comment) ([2]; in combination with sporanox) | stimming reduced ([2]; on day 1, one patient's comment) | reduction in finger flicking and finger writing stimming ([2]; one patient's comment) | toxicity of deoxynivalenol (DON) ([3]; Journal of Environmental Science and Health) | levels of oxidative stress and inflammation caused by DON exposure [3] | levels of aflatoxins, ochratoxin A, and zearalenone [4] | neuroprotection [5] | treatment for calciphylaxis ([6]; Ackermann et al. 2007) | treatment for vascular calcification ([6]; O'Neill 2008) | prevention of platinum-induced ototoxicity and nephrotoxicity ([6]; Skinner 1995)
1 | O=S([O-])([O-])=S.[Na+].[Na+] [STS, Sodium thiosulfate] | increases | more aware and more present | 80-90% | 30 to 40% | reduced the toxicity | able to reduce the levels of oxidative stress and inflammation | significantly reduce the levels | significant enhancement of neuroprotection |  |  | 
2 | O.O.O.O.O.O=S([O-])([O-])=S.[Na+].[Na+] [sodium thiosulfate pentahydrate] |  |  |  |  |  |  |  |  | effective treatment for calciphylaxis | effective treatment for vascular calcification | effective treatment to prevent platinum-induced ototoxicity and nephrotoxicity

Reference: patent US20240390414A1 (priority 2023, published 2024)
